A value given as a limit tells only on which side of the number the result lay.

One may read the EC50 as the concentration needed to bring the measured effect to its halfway point.

This test has as its target T1, human GPR119 (Homo sapiens, UniProt Q8TDV5).
T1 construct: expressed in transfected cells
T1 sequence (Q8TDV5 1-335): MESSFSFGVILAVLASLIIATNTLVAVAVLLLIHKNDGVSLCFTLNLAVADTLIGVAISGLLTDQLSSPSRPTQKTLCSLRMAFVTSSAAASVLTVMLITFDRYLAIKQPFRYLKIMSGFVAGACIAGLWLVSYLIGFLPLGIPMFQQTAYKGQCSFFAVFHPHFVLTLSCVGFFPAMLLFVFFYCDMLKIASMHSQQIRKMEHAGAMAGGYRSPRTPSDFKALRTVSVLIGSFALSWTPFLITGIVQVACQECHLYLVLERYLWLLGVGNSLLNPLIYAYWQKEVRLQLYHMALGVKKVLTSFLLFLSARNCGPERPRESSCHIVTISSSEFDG
Put plainly: Functional cellular assay measuring GPR119-mediated cAMP release (HTRF) in HEK-293 cells stably expressing recombinant GPR119. Conditions: cAMP response, cell line expressing human GPR119 (HEK-293), 30 minutes at room temperature. Type of test: cell-based. The procedure: Functional Cellular Assays Measuring GPR119-Mediated cAMP Release
Compounds of the invention, which are agonists of GPR119, were characterized by functional assays measuring the cAMP response of HEK-293 cell lines stably expressing recombinant GPR119 from man, mouse or rat, or by using a hamster cell line HIT-T15 expressing GPR119 endogenously. The cAMP content was determined using a kit based on homogenous time-resolved fluorescence (HTRF) from Cisbio Corp. (cat. no. 62AM4PEC). For preparation, cells were split into T175 culture flasks and grown to near confluency in medium (DMEM/10% FCS for HEK-293 cells, and F-12K medium/10% horse serum/2.5% FCS for HIT-T15 cells, respectively). Medium was then removed and cells washed with PBS lacking calcium and magnesium ions, followed by proteinase treatment with accutase (Sigma-Aldrich, cat. no. A6964). Detached cells were washed and resuspended in assay buffer (1×HBSS; 20 mM HEPES, 0.1% BSA, 2 mM IBMX) and cellular density determined. They were then diluted to 400000 cells/mL and 25 μL-aliquots dispensed to the wells of 96-well plates. For measurement, 25 μL of test compound in assay buffer was added and incubated for 30 minutes at room temperature. After addition of HTRF reagents diluted in lysis buffer, the plates were incubated for 1 hour, followed by measuring the fluorescence ratio at 665 vs. 620 nm. Potency of the agonists was quantified by determining the concentrations that caused 50% of the maximal response/activation (EC50). See Table 3 for exemplary data obtained using the cell line expressing human GPR119.
Background: TR-FRET usually uses a lanthanide donor and a delayed reading to cut background.
`CS(=O)(=O)Cn1nc2ccc(N3CC[C@@H](Oc4ccc(Oc5ccc(F)cc5)nc4)C3=O)cn2c1=O` [Example 1-31, 6-[(3R)-3-[[6-(4-fluorophenoxy)-3-pyridyl]oxy]-2-oxo-pyrrolidin-1-yl]-2-(methylsulfonylmethyl)-[1,2,4]triazolo[4,3-a]pyridin-3-one]: the EC50 is 365 nM.
As for `CN(C)C(=O)Cn1nc2ccc(N3CC[C@@H](Oc4ccc(Oc5ccc(F)cc5)nc4)C3=O)cn2c1=O` [Example 1-11, 2-[6-[(3R)-3-[[6-(4-fluorophenoxy)-3-pyridyl]oxy]-2-oxo-pyrrolidin-1-yl]-3-oxo-[1,2,4]triazolo[4,3-a]pyridin-2-yl]-N,N-dimethyl-acetamide], the EC50 was determined as 206 nM.
The same measure for `O=C(Cn1nc2ccc(N3CC[C@@H](Oc4ccc(OCC5CC5)nc4)C3=O)cc2n1)NCCO` [Example 2-04, 2-[5-[(3R)-3-[[6-(cyclopropylmethoxy)-3-pyridyl]oxy]-2-oxo-pyrrolidin-1-yl]benzotriazol-2-yl]-N-(2-hydroxyethyl)acetamide]: 343 nM; for `O=C(O)Cc1nc2ccc(N3CC[C@@H](Oc4ccc(OCC5CC5)nc4)C3=O)cn2n1` [Example 1-06, 2-[6-[(3R)-3-[[6-(cyclopropylmethoxy)-3-pyridyl]oxy]-2-oxo-pyrrolidin-1-yl]-[1,2,4]triazolo[1,5-a]pyridin-2-yl]acetic acid]: 17300 nM.
In the case of `CS(=O)(=O)Cn1nc2ccc(N3CC[C@@H](Oc4ccc(C(=O)C5CC5)cc4)C3=O)cn2c1=O` [Example 1-32, 6-[(3R)-3-[4-(cyclopropanecarbonyl)phenoxy]-2-oxo-pyrrolidin-1-yl]-2-(methylsulfonylmethyl)-[1,2,4]triazolo[4,3-a]pyridin-3-one], the EC50 amounted to 196 nM.
Take `O=C(Cn1nc2c(F)cc(N3CC[C@@H](Oc4ccc(OCC5CC5)nc4)C3=O)cn2c1=O)NC1CC1` [Example 2-02, N-cyclopropyl-2-[6-[(3R)-3-[[6-(cyclopropylmethoxy)-3-pyridyl]oxy]-2-oxo-pyrrolidin-1-yl]-8-fluoro-3-oxo-[1,2,4]triazolo[4,3-a]pyridin-2-yl]acetamide]: the EC50 was 123 nM.
With `O=C(O)Cn1nc2ccc(N3CC[C@@H](Oc4ccc(OCC5CC5)nc4)C3=O)cc2n1` [Example 1-17, 2-[5-[(3R)-3-[[6-(cyclopropylmethoxy)-3-pyridyl]oxy]-2-oxo-pyrrolidin-1-yl]benzotriazol-2-yl]acetic acid], the EC50 is 2110 nM.
Turning to `O=C1[C@H](Oc2ccc(OCC3CC3)nc2)CCN1c1cc(F)c2n[nH]c(=O)n2c1` [Example 1-25, 6-[(3R)-3-[[6-(cyclopropylmethoxy)-3-pyridyl]oxy]-2-oxo-pyrrolidin-1-yl]-8-fluoro-2H-[1,2,4]triazolo[4,3-a]pyridin-3-one], the EC50 stood at 249 nM.
For the molecule `O=C1[C@H](Oc2ccc(OCC3CC3)nc2)CCN1c1ccc2ncnn2c1` [Example 1-02, (3R)-3-[[6-(cyclopropylmethoxy)-3-pyridyl]oxy]-1-([1,2,4]triazolo[1,5-a]pyridin-6-yl)pyrrolidin-2-one], the EC50 is 851 nM.
`COC(=O)Cn1nc2ccc(N3CC[C@@H](Oc4ccc(OCC5CC5)nc4)C3=O)cc2n1` [Example 1-18, methyl 2-[5-[(3R)-3-[[6-(cyclopropylmethoxy)-3-pyridyl]oxy]-2-oxo-pyrrolidin-1-yl]benzotriazol-2-yl]acetate]: the EC50 was 34 nM.
On to `Cn1nc2ccc(N3CC[C@@H](Oc4ccc(OCC5CC5)nc4)C3=O)cn2c1=O` [Example 1-23, 6-[(3R)-3-[[6-(cyclopropylmethoxy)-3-pyridyl]oxy]-2-oxo-pyrrolidin-1-yl]-2-methyl-[1,2,4]triazolo[4,3-a]pyridin-3-one], for which the EC50 was found to be 4200 nM.
The same measure for `COC(=O)Cn1cc2ccc(N3CC[C@@H](Oc4ccc(OCC5CC5)nc4)C3=O)cc2n1` [Example 1-15, methyl 2-[6-[(3R)-3-[[6-(cyclopropylmethoxy)-3-pyridyl]oxy]-2-oxo-pyrrolidin-1-yl]indazol-2-yl]acetate]: 924 nM; for `CN(C)C(=O)Cn1nc2cc(N3CC[C@@H](Oc4ccc(OCC5CC5)nc4)C3=O)cc(F)c2n1` [Example 1-22, 2-[6-[(3R)-3-[[6-(cyclopropylmethoxy)-3-pyridyl]oxy]-2-oxo-pyrrolidin-1-yl]-4-fluorobenzotriazol-2-yl]-N,N-dimethyl-acetamide]: 182 nM; for `COC(=O)Cn1c(C)c2ccc(N3CC[C@@H](Oc4ccc(OCC5CC5)nc4)C3=O)cn2c1=O` [Example 1-04, methyl 2-[6-[(3R)-3-[[6-(cyclopropylmethoxy)-3-pyridyl]oxy]-2-oxo-pyrrolidin-1-yl]-1-methyl-3-oxo-imidazo[1,5-a]pyridin-2-yl]acetate]: 155 nM.
Consider `O=C(O)Cc1cn2cc(N3CC[C@@H](Oc4ccc(OCC5CC5)nc4)C3=O)ccc2n1` [Example 1-19, 2-[6-[(3R)-3-[[6-(cyclopropylmethoxy)-3-pyridyl]oxy]-2-oxo-pyrrolidin-1-yl]imidazo[1,2-a]pyridin-2-yl]acetic acid], for which the EC50 was more than 100000 nM.
To `COC(=O)c1nc2ccc(N3CC[C@@H](Oc4ccc(OCC5CC5)nc4)C3=O)cn2n1` [Example 1-08, methyl 6-[(3R)-3-[[6-(cyclopropylmethoxy)-3-pyridyl]oxy]-2-oxo-pyrrolidin-1-yl]-[1,2,4]triazolo[1,5-a]pyridine-2-carboxylate] belongs 5540 nM.
To `Cn1nc2ccc(N3CC[C@@H](Oc4ccc(OCC5CC5)nc4)C3=O)cc2n1` [Example 1-21, (3R)-3-[[6-(cyclopropylmethoxy)-3-pyridyl]oxy]-1-(2-methylbenzotriazol-5-yl)pyrrolidin-2-one] belongs 2050 nM.
The same measure for `Cn1nc2c(F)cc(N3CC[C@@H](Oc4ccc(OCC5CC5)nc4)C3=O)cn2c1=O` [Example 1-27, 6-[(3R)-3-[[6-(cyclopropylmethoxy)-3-pyridyl]oxy]-2-oxo-pyrrolidin-1-yl]-8-fluoro-2-methyl-[1,2,4]triazolo[4,3-a]pyridin-3-one]: 1870 nM.
Consider `O=C1[C@H](Oc2ccc(OCC3CC3)nc2)CCN1c1ccc2n[nH]c(=O)n2c1` [Example 1-14, 6-[(3R)-3-[[6-(cyclopropylmethoxy)-3-pyridyl]oxy]-2-oxo-pyrrolidin-1-yl]-2H-[1,2,4]triazolo[4,3-a]pyridin-3-one], for which the EC50 turned out to be 701 nM.
In the case of `O=C1[C@H](Oc2ccc(OCC3CC3)nc2)CCN1c1ccc2nc(C3CC3)nn2c1` [Example 1-01, (3R)-3-[[6-(Cyclopropylmethoxy)-3-pyridyl]oxy]-1-(2-cyclopropyl-[1,2,4]triazolo[1,5-a]pyridin-6-yl)pyrrolidin-2-one], the EC50 turned out to be 11300 nM.
To `NC(=O)Cn1nc2ccc(N3CC[C@@H](Oc4ccc(OCC5CC5)nc4)C3=O)cc2n1` [Example 2-05, 2-[5-[(3R)-3-[[6-(cyclopropylmethoxy)-3-pyridyl]oxy]-2-oxo-pyrrolidin-1-yl]benzotriazol-2-yl]acetamide] belongs 196 nM.
To `O=C(O)Cn1cc2ccc(N3CC[C@@H](Oc4ccc(OCC5CC5)nc4)C3=O)cc2n1` [Example 1-16, 2-[6-[(3R)-3-[[6-(cyclopropylmethoxy)-3-pyridyl]oxy]-2-oxo-pyrrolidin-1-yl]indazol-2-yl]acetic acid] belongs 12000 nM; to `CN(C)C(=O)Cn1nc2ccc(N3CC[C@@H](Oc4ccc(OCC(F)(F)F)nc4)C3=O)cn2c1=O` [Example 1-30, N,N-dimethyl-2-[3-oxo-6-[(3R)-2-oxo-3-[[6-(2,2,2-trifluoroethoxy)-3-pyridyl]oxy]pyrrolidin-1-yl]-[1,2,4]triazolo[4,3-a]pyridin-2-yl]acetamide], 203 nM.
On to `CN(C)C(=O)Cn1nc2c(F)cc(N3CC[C@@H](Oc4ccc(C(=O)CC5CC5)cc4)C3=O)cn2c1=O` [Example 1-13, 2-[6-[(3R)-3-[4-(2-cyclopropylacetyl)phenoxy]-2-oxo-pyrrolidin-1-yl]-8-fluoro-3-oxo-[1,2,4]triazolo[4,3-a]pyridin-2-yl]-N,N-dimethyl-acetamide], for which the EC50 turned out to be 179 nM.
On to `CN(C)C(=O)Cn1nc2ccc(N3CC[C@@H](Oc4ccc(OCC5CC5)nc4)C3=O)cn2c1=O` [Example 1-09, 2-[6-[(3R)-3-[[6-(cyclopropylmethoxy)-3-pyridyl]oxy]-2-oxo-pyrrolidin-1-yl]-3-oxo-[1,2,4]triazolo[4,3-a]pyridin-2-yl]-N,N-dimethyl-acetamide], for which the EC50 is 191 nM.
With `CN(C)C(=O)Cn1nc2ccc(N3CC[C@@H](Oc4ccc(OCC5CC5)nc4)C3=O)cc2n1` [Example 2-03, 2-[5-[(3R)-3-[[6-(cyclopropylmethoxy)-3-pyridyl]oxy]-2-oxo-pyrrolidin-1-yl]benzotriazol-2-yl]-N,N-dimethyl-acetamide], the EC50 is 127 nM.
